Measured values: paper PMC11932959, “Sulfonamide‐Bearing Pyrazolone Derivatives as Multitarget Therapeutic Agents: Design, Synthesis, Characterization, Biological Evaluation, In Silico ADME/T Profiling and Molecular Docking Study” (Pharmacology Research & Perspectives, 2025)

Tests used:
Experiment in all cases: biochemical
AChE = AChE (Homo sapiens, UniProt P22303); assay type: biochemical; conditions: Lineweaver-Burk; for Ki: mean ± standard error, read-out: K I AChE
Description: (§1) First, purification of hCA I and hCA II enzymes for this study followed a modified procedure derived from prior literature sources. To evaluate the inhibitory effects, the esterase activities of hCA isoforms were assessed using the p‐nitrophenylacetate substrate, which is converted by both isoforms to the p‐nitrophenolate ion, as described in our prior studies. The assessment of ChE activities involved a modified adaptation of the Ellman's method, incorporating acetylthiocholine iodide for AChE and […] for BChE as the respective substrates.
(§2) The inhibition effects of the novel sulfonamide‐bearing pyrazolone derivatives were determined with different inhibitor concentrations (at least five) against hCA isoenzymes and ChEs. The IC 50 of the derivatives was calculated from Activity (%)–[inhibitor] graphs for derivatives. The inhibition types and K I values were found by Lineweaver and Burk's curves. The data analysis and graph generation were performed using GraphPad Prism version 8 for Mac (GraphPad Software, La Jolla, California, USA). The goodness of fit for enzyme inhibition models was compared using the extra sum‐of‐squares F test and the AICc approach.

hCA I = hCA I (Homo sapiens, UniProt P00915); assay type: biochemical; conditions: Lineweaver-Burk; for Ki: mean ± standard error, read-out: K I hCA I
Description: as §1, §2

hCA II = hCA II (Homo sapiens, UniProt P00918); assay type: biochemical; conditions: Lineweaver-Burk; for Ki: mean ± standard error, read-out: K I hCA II
Description: as §1, §2

BChE = BChE (Homo sapiens, UniProt P06276); conditions: mean ± standard error; Lineweaver-Burk; read-out: K I BChE
Description: as §1, §2

Sequence of hCA I (P00915 whole entry): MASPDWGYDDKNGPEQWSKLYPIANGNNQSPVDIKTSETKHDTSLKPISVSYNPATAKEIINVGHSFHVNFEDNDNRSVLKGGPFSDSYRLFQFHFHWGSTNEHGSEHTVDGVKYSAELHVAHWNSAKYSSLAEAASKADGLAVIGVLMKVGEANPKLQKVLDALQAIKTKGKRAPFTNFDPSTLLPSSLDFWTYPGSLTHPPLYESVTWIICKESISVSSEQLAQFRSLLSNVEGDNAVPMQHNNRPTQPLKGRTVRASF
Sequence of BChE (P06276 29-602, species assumed): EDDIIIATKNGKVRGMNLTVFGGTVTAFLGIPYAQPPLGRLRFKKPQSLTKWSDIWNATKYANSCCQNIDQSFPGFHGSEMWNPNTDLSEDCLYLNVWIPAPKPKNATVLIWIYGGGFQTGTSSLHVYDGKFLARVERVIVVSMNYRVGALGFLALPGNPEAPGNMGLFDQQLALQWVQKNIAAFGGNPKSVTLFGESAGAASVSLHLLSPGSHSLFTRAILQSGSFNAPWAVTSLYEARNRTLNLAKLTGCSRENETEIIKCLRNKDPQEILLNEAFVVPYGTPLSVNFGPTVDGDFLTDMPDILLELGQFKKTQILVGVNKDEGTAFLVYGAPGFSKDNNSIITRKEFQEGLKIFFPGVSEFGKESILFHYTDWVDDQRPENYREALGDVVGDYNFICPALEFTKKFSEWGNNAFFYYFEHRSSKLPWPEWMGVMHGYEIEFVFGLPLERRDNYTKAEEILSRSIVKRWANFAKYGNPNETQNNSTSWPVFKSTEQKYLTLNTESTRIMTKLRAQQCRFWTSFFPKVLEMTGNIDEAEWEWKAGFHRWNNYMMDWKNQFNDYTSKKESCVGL
Sequence of AChE (P22303 32-614): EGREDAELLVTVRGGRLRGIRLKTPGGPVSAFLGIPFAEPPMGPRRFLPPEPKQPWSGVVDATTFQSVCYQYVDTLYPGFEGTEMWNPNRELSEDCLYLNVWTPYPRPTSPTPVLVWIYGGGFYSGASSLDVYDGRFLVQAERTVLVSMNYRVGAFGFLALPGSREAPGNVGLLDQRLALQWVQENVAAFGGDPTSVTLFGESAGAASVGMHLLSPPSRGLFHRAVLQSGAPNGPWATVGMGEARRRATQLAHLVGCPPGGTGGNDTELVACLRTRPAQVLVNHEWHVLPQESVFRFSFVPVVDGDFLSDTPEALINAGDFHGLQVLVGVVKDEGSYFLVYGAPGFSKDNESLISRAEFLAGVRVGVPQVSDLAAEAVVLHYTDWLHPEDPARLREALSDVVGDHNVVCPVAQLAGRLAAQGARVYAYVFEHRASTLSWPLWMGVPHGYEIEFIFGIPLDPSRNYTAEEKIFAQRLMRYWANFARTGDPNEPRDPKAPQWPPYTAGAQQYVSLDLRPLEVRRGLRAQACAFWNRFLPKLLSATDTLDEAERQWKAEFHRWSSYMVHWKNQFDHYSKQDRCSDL

Row | SMILES | Ki (AChE) | Ki (hCA I) | Ki (hCA II) | Ki (BChE) | inhibition type hCA II (hCA II) | inhibition type hCA I (hCA I) | inhibition type AChE (AChE)
1 | CC1=NN(C(=O)c2ccccc2)C(=O)C1/N=N/c1ccc(S(N)(=O)=O)cc1 (stereo not drawn) [1a, 4‐[(1‐Benzoyl‐3‐Methyl‐5‐Oxo‐4,5‐Dihydro‐1H‐Pyrazol‐4‐Yl)diazinyl] Benzenesulfonamide] | 11.2 ± 1.15 nM | 53.9 ± 5.03 nM | 65.5 ± 5.42 nM | 95.5 ± 5.78 nM | – | – | –
2 | CC1=NN(C(=O)c2ccc(Cl)cc2)C(=O)C1/N=N/c1ccc(S(N)(=O)=O)cc1 (stereo not drawn) [1b, 4‐([1‐(4‐Chlorobenzoyl)‐3‐Methyl‐5‐Oxo‐4,5‐Dihydro‐1H‐Pyrazol‐4‐Yl]Diazenyl) Benzenesulfonamide] | 13.3 ± 1.43 nM | 55.9 ± 3.29 nM | 50.8 ± 3.36 nM | 73.3 ± 12.2 nM | – | – | –
3 | CC1=NN(C(=O)c2ccc(Br)cc2)C(=O)C1N=Nc1ccc(S(N)(=O)=O)cc1 (stereo not drawn) [1c, 4‐([1‐(4‐Bromobenzoyl)‐3‐Methyl‐5‐Oxo‐4,5‐Dihydro‐1H‐Pyrazol‐4‐Yl]Diazenyl) Benzenesulfonamide] | 9.47 ± 1.23 nM | 49.2 ± 4.27 nM | 85.4 ± 6.6 nM | 34.8 ± 5.88 nM | non‐competitive | – | –
4 | CC1=NN(C(=O)c2ccc(C)cc2)C(=O)C1/N=N/c1ccc(S(N)(=O)=O)cc1 (stereo not drawn) [1d, 4‐([3‐Methyl‐1‐(4‐Methylbenzoyl)‐5‐Oxo‐4,5‐Dihydro‐1H‐Pyrazol‐4‐Yl]Diazenyl) Benzenesulfonamide] | 16 ± 1.6 nM | 65.1 ± 3 nM | 42.6 ± 2.92 nM | 64.6 ± 7.59 nM | – | – | –
5 | COc1ccc(C(=O)N2N=C(C)C(N=Nc3ccc(S(N)(=O)=O)cc3)C2=O)cc1 (stereo not drawn) [1e, 4‐([1‐(4‐Methoxybenzoyl)‐3‐Methyl‐5‐Oxo‐4,5‐Dihydro‐1H‐Pyrazol‐4‐Yl]Diazenyl) Benzenesulfonamide] | 14 ± 1.49 nM | 75.5 ± 4.91 nM | 63.7 ± 6.71 nM | 80.9 ± 9.41 nM | competitive | non‐competitive | –
6 | CC1=NN(C(=O)c2cccc(Cl)c2)C(=O)C1/N=N/c1ccc(S(N)(=O)=O)cc1 (stereo not drawn) [1f, 4‐([1‐(3‐Chlorobenzoyl)‐3‐Methyl‐5‐Oxo‐4,5‐Dihydro‐1H‐Pyrazol‐4‐Yl]Diazenyl) Benzenesulfonamide] | 7.45 ± 0.98 nM | 66.8 ± 5.15 nM | 62.2 ± 4.19 nM | 58.2 ± 8.11 nM | – | – | competitive
7 | CC1=NN(C(=O)c2ccccc2)C(=O)C1/N=N/c1cccc(S(N)(=O)=O)c1 (stereo not drawn) [2a, 3‐[(1‐Benzoyl‐3‐Methyl‐5‐Oxo‐4,5‐Dihydro‐1H‐Pyrazol‐4‐Yl)diazinyl] Benzenesulfonamide] | 10.5 ± 0.9 nM | 73.2 ± 7.17 nM | 55.7 ± 4.14 nM | 98.3 ± 7.34 nM | – | – | –
8 | CC1=NN(C(=O)c2ccc(Cl)cc2)C(=O)C1/N=N/c1cccc(S(N)(=O)=O)c1 (stereo not drawn) [2b, 3‐([1‐(4‐Chlorobenzoyl)‐3‐Methyl‐5‐Oxo‐4,5‐Dihydro‐1H‐Pyrazol‐4‐Yl]Diazenyl) Benzenesulfonamide] | 8.66 ± 0.93 nM | 37.1 ± 2.43 nM | 24.8 ± 1.57 nM | 76.4 ± 11.6 nM | non‐competitive | – | –
9 | CC1=NN(C(=O)c2ccc(Br)cc2)C(=O)C1/N=N/c1cccc(S(N)(=O)=O)c1 (stereo not drawn) [2c, 3‐([1‐(4‐Bromobenzoyl)‐3‐Methyl‐5‐Oxo‐4,5‐Dihydro‐1H‐Pyrazol‐4‐Yl]Diazenyl) Benzenesulfonamide] | 8.43 ± 1.42 nM | 44.6 ± 2.84 nM | 28.8 ± 2.51 nM | 96 ± 5.44 nM | – | – | –
10 | CC1=NN(C(=O)c2ccc(C)cc2)C(=O)C1N=Nc1cccc(S(N)(=O)=O)c1 (stereo not drawn) [2d, 3‐([3‐Methyl‐1‐(4‐Methylbenzoyl)‐5‐Oxo‐4,5‐Dihydro‐1H‐Pyrazol‐4‐Yl]Diazenyl) Benzenesulfonamide] | 15.8 ± 1.04 nM | 18 ± 2.86 nM | 36.2 ± 2.78 nM | 88.6 ± 12.9 nM | – | competitive | –
11 | COc1ccc(C(=O)N2N=C(C)C(/N=N/c3cccc(S(N)(=O)=O)c3)C2=O)cc1 (stereo not drawn) [2e, 3‐([1‐(4‐Methoxybenzoyl)‐3‐Methyl‐5‐Oxo‐4,5‐Dihydro‐1H‐Pyrazol‐4‐Yl]Diazenyl) Benzenesulfonamide] | 13.5 ± 0.91 nM | 49 ± 6.25 nM | 35.4 ± 1.94 nM | 93.8 ± 10.5 nM | – | – | –
12 | CC1=NN(C(=O)c2cccc(Cl)c2)C(=O)C1/N=N/c1cccc(S(N)(=O)=O)c1 (stereo not drawn) [2f, 3‐([1‐(3‐Chlorobenzoyl)‐3‐Methyl‐5‐Oxo‐4,5‐Dihydro‐1H‐Pyrazol‐4‐Yl]Diazenyl) Benzenesulfonamide] | 9.52 ± 0.86 nM | 37.7 ± 2.06 nM | 33.3 ± 4.09 nM | 136 ± 17.4 nM | – | – | –
